From patent US20260176254A1, “INHIBITORS OF PROSTATE SPECIFIC MEMBRANE ANTIGEN AND USE THEREOF” (SHANGHAI SINOTAU BIOTECH. CO., LTD, priority 2023, published 2026) come the findings set out here.

The subject of assay [1] is LNCaP cells. Description: Cell uptake assay of 177Lu-labeled compound. The format is cell-based. The conditions noted are these: for Membrane (%): cell membrane fraction; for Intracellular (%): intracellular fraction. As to the method: LNCaP (ATCC) cells were cultured in RPMI 1640 medium (Gibco) containing 10% fetal bovine serum (FBS) (Gibco), in 5% carbon dioxide (CO2), at 37.0° C. in a humidified incubator. 2×10^5 LNCaP cells/well were seeded in a 24-well plate the day before experiment. 7.4 KBq (200 nCi) of ^177Lu-labeled compound was added into each well, and then incubated in 37° C., 5% CO2 incubator for varying durations. At each time point, the supernatant, cell membrane and intracellular fractions were collected. The cell membrane fraction was recovered by incubating cells with buffer containing 50 mM glycine and 100 mM NaCl, pH 2.7 for 10 minutes at 37° C., while the intracellular fraction was recovered from cells treated with 1M NaOH. Activity of ^177Lu-labelled compound in every component was detected by gamma counter.

Assay [2] deals with T1, recombinant human PSMA (rhPSMA) (Homo sapiens, UniProt Q04609).
T1 construct: purchased Sino Biological
T1 sequence (Q04609 whole entry): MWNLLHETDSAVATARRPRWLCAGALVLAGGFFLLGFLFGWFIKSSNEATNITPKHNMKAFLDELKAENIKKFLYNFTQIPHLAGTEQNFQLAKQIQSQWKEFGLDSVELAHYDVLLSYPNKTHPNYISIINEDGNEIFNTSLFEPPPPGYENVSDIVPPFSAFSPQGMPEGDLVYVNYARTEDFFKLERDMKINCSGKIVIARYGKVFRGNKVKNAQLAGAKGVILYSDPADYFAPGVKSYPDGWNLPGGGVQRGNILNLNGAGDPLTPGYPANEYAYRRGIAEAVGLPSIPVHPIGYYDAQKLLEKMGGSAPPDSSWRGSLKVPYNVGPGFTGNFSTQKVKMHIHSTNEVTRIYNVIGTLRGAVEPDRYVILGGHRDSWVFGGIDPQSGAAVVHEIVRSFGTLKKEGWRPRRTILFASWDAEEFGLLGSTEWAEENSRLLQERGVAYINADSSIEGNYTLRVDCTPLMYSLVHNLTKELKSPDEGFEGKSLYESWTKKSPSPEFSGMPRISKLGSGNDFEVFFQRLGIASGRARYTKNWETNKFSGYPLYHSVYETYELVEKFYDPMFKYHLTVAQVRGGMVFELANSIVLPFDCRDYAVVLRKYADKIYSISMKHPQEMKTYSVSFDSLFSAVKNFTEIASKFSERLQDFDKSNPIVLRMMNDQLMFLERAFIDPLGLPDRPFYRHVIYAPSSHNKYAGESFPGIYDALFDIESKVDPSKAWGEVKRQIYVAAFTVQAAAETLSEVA
Kind of assay: Naaladase assay (fluorescence-based Naaladase activity inhibition). The conditions noted are these: rhPSMA 0.4 μg/mL, substrate N-Acetyl-Asp-Glu 40 μM, 37° C. one hour. The assay is classed as biochemical. As to the method:
Naaladase activity inhibition was determined using a fluorescence-based assay. Briefly, the solution containing the substrate N-Acetyl-Asp-Glu (Sigma-Aldrich) at 40 μM and the compound at concentrations from 0.15 nM to 1000 nM was mixed at equal volume with recombinant human PSMA (rhPSMA, Sino Biological) at 0.4 μg/mL, in assay buffer (50 mM HEPES, 100 mM NaCl, pH 7.5). The enzymatic reaction was proceeded by incubation at 37° C. for one hour and then stopped by heating at 95° C. for 5 minutes. A solution of 15 mM ortho-phthaldialdehyde (Sigma-Aldrich) was added to all vials and incubated for 10 min at ambient temperature. The reaction solutions were loaded onto a 96-well flat clear bottom black microplates (Corning) and read at excitation and emission wavelengths of 330 and 450 nm, respectively, using a microplate reader (Tecan). The data were analyzed by a one-site total binding regression algorithm of GraphPad Prism (GraphPad Software).

pIC50: −log10 of the molar value.

On to `O=C(O)CC[C@H](NC(=O)N[C@@H](CCCCNC(=O)[C@H](Cc1ccc2ccccc2c1)Nc1c(NC23CCC(NC(=O)CN4CCN(CC(=O)O)CCN(CC(=O)O)CCN(CC(=O)O)CC4)(CC2)CC3)c(=O)c1=O)C(=O)O)C(=O)O` [E6, (((S)-1-carboxy-5-((S)-2-((3,4-dioxo-2-((4-(2-(4,7,10-tris(carboxymethyl)-1,4,7,10-tetraazacyclododecan-1-yl)acetamido)bicyclo[2.2.2]octan-1-yl)amino)cyclobut-1-en-1-yl)amino)-3-(naphthalen-2-yl)propanamido)pentyl)carbamoyl)-L-glutamic acid], for which the “Membrane (%)” value came out at 6.3% in assay [1] (1 hr), 10.1% in assay [1] (4 hr) and 11.6% in assay [1] (24 hr). The “Intracellular (%)” value is recorded as 5.7% in assay [1] (1 hr), 18.9% in assay [1] (4 hr) and 45.5% in assay [1] (24 hr). In addition, the pIC50 (in general, −log10 of the IC50, conventionally taken in molar units) in assay [2] was 8.82.

Turning to `O=C(O)CN1CCN(CC(=O)O)CCN(CC(=O)NC23CCC(Nc4c(N[C@@H](Cc5c6ccccc6cc6ccccc56)C(=O)NCCCC[C@H](NC(=O)N[C@@H](CNC(=O)C(=O)O)C(=O)O)C(=O)O)c(=O)c4=O)(CC2)CC3)CCN(CC(=O)O)CC1` [E8], the “Membrane (%)” value in assay [1] (1 hr) is listed as 4.8%; in assay [1] (4 hr), 12.8%; in assay [1] (24 hr) it was 7.3%. Further, the “Intracellular (%)” value is listed as 11.5% in assay [1] (1 hr), 39.0% in assay [1] (4 hr) and 77.9% in assay [1] (24 hr). For the same compound, the pIC50 in assay [2] was 8.80.

For the compound `O=C(O)CN1CCN(CC(=O)O)CCN(Cc2nnc(C34CCC(Nc5c(N[C@@H](Cc6c7ccccc7cc7ccccc67)C(=O)NCCCC[C@H](NC(=O)N[C@@H](CNC(=O)C(=O)O)C(=O)O)C(=O)O)c(=O)c5=O)(CC3)CC4)o2)CCN(CC(=O)O)CC1` [E9], the “Membrane (%)” value was determined as 5.0% in assay [1] (1 hr), 9.7% in assay [1] (4 hr) and 10.1% in assay [1] (24 hr). For the same compound, the “Intracellular (%)” value in assay [1] (1 hr) is 12.4%; in assay [1] (4 hr), 40.4%; in assay [1] (24 hr), 72.0%. Further, the negative logarithm of the IC50 (pIC50) in assay [2] was 9.00.

As for `O=C(O)CN1CCN(CC(=O)O)CCN(Cc2nnc([C@H]3CC[C@H](Nc4c(N[C@@H](Cc5c6ccccc6cc6ccccc56)C(=O)NCCCC[C@H](NC(=O)N[C@@H](CNC(=O)C(=O)O)C(=O)O)C(=O)O)c(=O)c4=O)CC3)o2)CCN(CC(=O)O)CC1` [E10], the “Membrane (%)” value is 7.1% in assay [1] (1 hr), 10.5% in assay [1] (4 hr) and 11.0% in assay [1] (24 hr). The “Intracellular (%)” value worked out at 16.9% in assay [1] (1 hr), 50.2% in assay [1] (4 hr) and 76.7% in assay [1] (24 hr). Moreover, the pIC50 in assay [2] was 8.77.

For `O=C(O)CN1CCN(CC(=O)O)CCN(CC(=O)N[C@H]2CC[C@H](Nc3c(N[C@@H](Cc4c5ccccc5cc5ccccc45)C(=O)NCCCC[C@H](NC(=O)N[C@@H](CNC(=O)C(=O)O)C(=O)O)C(=O)O)c(=O)c3=O)CC2)CCN(CC(=O)O)CC1` [E12], the figures for the “Membrane (%)” value in assay [1] (1 hr), in assay [1] (4 hr) and in assay [1] (24 hr) were 11.1%, 18.0% and 12.7%, respectively. Moreover, the results for the “Intracellular (%)” value in assay [1] (1 hr), in assay [1] (4 hr) and in assay [1] (24 hr) were 7.3%, 24.3% and 41.4%, respectively. Besides, the negative logarithm of the IC50 (pIC50) in assay [2] is 9.05.

Take `O=C(O)CCC[C@H](NC(=O)N[C@@H](CCCCNC(=O)[C@H](Cc1c2ccccc2cc2ccccc12)Nc1c(Nc2ccc3c(c2)CN(C(=O)CN2CCN(CC(=O)O)CCN(CC(=O)O)CCN(CC(=O)O)CC2)CC3)c(=O)c1=O)C(=O)O)C(=O)O` [E13]: the “Membrane (%)” value is 8.3% in assay [1] (1 hr), 13.8% in assay [1] (4 hr) and 7.1% in assay [1] (24 hr). The results for the “Intracellular (%)” value in assay [1] (1 hr), in assay [1] (4 hr) and in assay [1] (24 hr) were 6.9%, 23.0% and 43.3%, respectively. For the same compound, the negative-log IC50 (pIC50) in assay [2] was 8.77.

As for `O=C(O)CCC[C@H](NC(=O)N[C@@H](CCCCNC(=O)[C@H](Cc1c2ccccc2cc2ccccc12)Nc1c(Nc2ccc3c(c2)CCN(C(=O)CN2CCN(CC(=O)O)CCN(CC(=O)O)CCN(CC(=O)O)CC2)C3)c(=O)c1=O)C(=O)O)C(=O)O` [E14], the entries for the “Membrane (%)” value in assay [1] (1 hr), in assay [1] (4 hr) and in assay [1] (24 hr) were 9.7%, 14.8% and 12.9%, respectively. For the same compound, the “Intracellular (%)” value is recorded as 7.9% in assay [1] (1 hr), 25.1% in assay [1] (4 hr) and 49.5% in assay [1] (24 hr). Also, the pIC50 in assay [2] was 8.77.

With `O=C(O)CC[C@H](NC(=O)N[C@@H](CCCCNC(=O)[C@H](Cc1c2ccccc2cc2ccccc12)Nc1c(NC23CCC(NC(=O)CN4CCN(CC(=O)O)CCN(CC(=O)O)CCN(CC(=O)O)CC4)(CC2)CC3)c(=O)c1=O)C(=O)O)C(=O)O` [E15], the entries for the “Membrane (%)” value in assay [1] (1 hr), in assay [1] (4 hr) and in assay [1] (24 hr) were 14.1%, 27.3% and 23.8%, respectively. For the same compound, the “Intracellular (%)” value in assay [1] (1 hr) was determined as 9.6%; in assay [1] (4 hr) it was 30.4%; in assay [1] (24 hr), 58.4%. Further, in assay [2], the pIC50 is 9.10.

`O=C(O)CCC[C@H](NC(=O)N[C@@H](CCNC(=O)[C@H](Cc1c2ccccc2cc2ccccc12)NC(=O)[C@H]1CC[C@H](CNC(=O)CN2CCN(CC(=O)O)CCN(CC(=O)O)CCN(CC(=O)O)CC2)CC1)C(=O)O)C(=O)O` [HTK03149, reference compound]: the “Membrane (%)” value in assay [1] (1 hr) was 2.9%; in assay [1] (4 hr) it was 3.8%; in assay [1] (24 hr), 5.7%. Besides, the “Intracellular (%)” value in assay [1] (1 hr) was 2.8%; in assay [1] (4 hr), 7.4%; in assay [1] (24 hr) it was 19.3%. Besides, the pIC50 in assay [2] is 8.80.

Consider `O=C(O)CC[C@H](NC(=O)N[C@@H](CCCCNC(=O)[C@H](Cc1ccc2ccccc2c1)NC(=O)[C@H]1CC[C@H](CNC(=O)CN2CCN(CC(=O)O)CCN(CC(=O)O)CCN(CC(=O)O)CC2)CC1)C(=O)O)C(=O)O` [PSMA-617, reference compound], for which the figures for the “Membrane (%)” value in assay [1] (1 hr), in assay [1] (4 hr) and in assay [1] (24 hr) were 2.1%, 4.8% and 4.7%, respectively. Besides, the “Intracellular (%)” value in assay [1] (1 hr) is 3.0%; in assay [1] (4 hr), 9.5%; in assay [1] (24 hr), 22.4%. Further, the pIC50 in assay [2] is 8.62.
